Laboratory results as given in article PMC4890880 (ACS infectious diseases, 2016).
pIC50: −log10 of the molar value.

Each compound was assayed on HepG2-A16-CD81EGFP cells (assay: cells). Settings: Homo sapiens, HepG2, read-out: HepG2 Tox% @ 50 uM rep1.

Row | SMILES | cytotoxicity at 50 µM
1 | COc1ccc(C)c2sc(N(Cc3cccnc3)C(=O)c3ccc(C#N)cc3)nc12 [MMV001241] | 18%
2 | O=C(NCc1ccco1)C1CCN(S(=O)(=O)c2ccc(Cl)cc2)CC1 [MMV006188] | 22%
3 | CCOC(=O)c1cnc2c(C)cccc2c1Nc1ccc(C(C)=O)cc1 [MMV006250] | 18%
4 | CCCCc1c(C)nc2c(OC)cccc2c1O [MMV006820] | -15%
5 | C=CCc1c(C)nc2ccccc2c1O [MMV006913] | -8%
6 | Cc1ccc(-c2cc3nc4c(c(O)n3n2)CCCC4)cc1 [MMV006937] | -11%
7 | CCOC(=O)c1cnc2ccc(CC)cc2c1O [MMV007116] | -3.48%
8 | COc1ccccc1N1C(=N)SC(=Cc2ccc(OCc3ccccc3F)cc2)C1=O [MMV007199] | 14%

Same assay, conditions: Homo sapiens, HepG2, read-out: HepG2 Tox% @ 50 uM rep2

Row | SMILES | cytotoxicity at 50 µM
9 | O=C(NCc1ccco1)C1CCN(S(=O)(=O)c2ccc(Cl)cc2)CC1 [MMV006188] | 28%
10 | CCCCc1c(C)nc2c(OC)cccc2c1O [MMV006820] | -12%
11 | C=CCc1c(C)nc2ccccc2c1O [MMV006913] | -5%
12 | Cc1ccc(-c2cc3nc4c(c(O)n3n2)CCCC4)cc1 [MMV006937] | -9%
13 | CCOC(=O)c1cnc2ccc(CC)cc2c1O [MMV007116] | -3.29%

Same assay, conditions: Homo sapiens, HepG2, read-out: Tox IC50

Row | SMILES | pIC50
14 | COc1ccc(C)c2sc(N(Cc3cccnc3)C(=O)c3ccc(C#N)cc3)nc12 [MMV001241] | < 4.30
15 | O=C(NCc1ccco1)C1CCN(S(=O)(=O)c2ccc(Cl)cc2)CC1 [MMV006188] | < 4.30
16 | CCOC(=O)c1cnc2c(C)cccc2c1Nc1ccc(C(C)=O)cc1 [MMV006250] | < 4.30
17 | CCCCc1c(C)nc2c(OC)cccc2c1O [MMV006820] | < 5.00
18 | C=CCc1c(C)nc2ccccc2c1O [MMV006913] | < 5.00
19 | Cc1ccc(-c2cc3nc4c(c(O)n3n2)CCCC4)cc1 [MMV006937] | < 5.00
20 | CCOC(=O)c1cnc2ccc(CC)cc2c1O [MMV007116] | < 5.00
21 | COc1ccccc1N1C(=N)SC(=Cc2ccc(OCc3ccccc3F)cc2)C1=O [MMV007199] | < 4.30

Same assay, conditions: Homo sapiens, HepG2, read-out: Tox max inhibition (%) @ 10 uM

Row | SMILES | inhibition at 10 µM
22 | CCCCc1c(C)nc2c(OC)cccc2c1O [MMV006820] | 15%
23 | C=CCc1c(C)nc2ccccc2c1O [MMV006913] | 15%
24 | Cc1ccc(-c2cc3nc4c(c(O)n3n2)CCCC4)cc1 [MMV006937] | 6.62%
25 | CCOC(=O)c1cnc2ccc(CC)cc2c1O [MMV007116] | 10%

Same assay, conditions: Homo sapiens, HepG2, read-out: Tox max inhibition (%) @ 50 uM

Row | SMILES | inhibition at 50 µM
26 | COc1ccc(C)c2sc(N(Cc3cccnc3)C(=O)c3ccc(C#N)cc3)nc12 [MMV001241] | 22%
27 | O=C(NCc1ccco1)C1CCN(S(=O)(=O)c2ccc(Cl)cc2)CC1 [MMV006188] | 28%
28 | CCOC(=O)c1cnc2c(C)cccc2c1Nc1ccc(C(C)=O)cc1 [MMV006250] | 0%
29 | COc1ccccc1N1C(=N)SC(=Cc2ccc(OCc3ccccc3F)cc2)C1=O [MMV007199] | 24%

What follows are compounds tested on Plasmodium berghei (Pb-Luc) exoerythrocytic-stage parasites (assay: microbe, parasite or virus in culture). Settings: read-out: Inhibition% @ 50 uM rep1.

Row | SMILES | inhibition at 50 µM
30 | COc1ccc(C)c2sc(N(Cc3cccnc3)C(=O)c3ccc(C#N)cc3)nc12 [MMV001241] | 100%
31 | O=C(NCc1ccco1)C1CCN(S(=O)(=O)c2ccc(Cl)cc2)CC1 [MMV006188] | 102%
32 | CCOC(=O)c1cnc2c(C)cccc2c1Nc1ccc(C(C)=O)cc1 [MMV006250] | 88%
33 | CCCCc1c(C)nc2c(OC)cccc2c1O [MMV006820] | 99%
34 | C=CCc1c(C)nc2ccccc2c1O [MMV006913] | 100%
35 | Cc1ccc(-c2cc3nc4c(c(O)n3n2)CCCC4)cc1 [MMV006937] | 103%
36 | CCOC(=O)c1cnc2ccc(CC)cc2c1O [MMV007116] | 102%
37 | COc1ccccc1N1C(=N)SC(=Cc2ccc(OCc3ccccc3F)cc2)C1=O [MMV007199] | 102%

Same assay, conditions: read-out: Inhibition% @ 50 uM rep2

Row | SMILES | inhibition at 50 µM
38 | COc1ccc(C)c2sc(N(Cc3cccnc3)C(=O)c3ccc(C#N)cc3)nc12 [MMV001241] | 102%
39 | O=C(NCc1ccco1)C1CCN(S(=O)(=O)c2ccc(Cl)cc2)CC1 [MMV006188] | 102%
40 | CCOC(=O)c1cnc2c(C)cccc2c1Nc1ccc(C(C)=O)cc1 [MMV006250] | 91%
41 | CCCCc1c(C)nc2c(OC)cccc2c1O [MMV006820] | 102%
42 | C=CCc1c(C)nc2ccccc2c1O [MMV006913] | 97%
43 | Cc1ccc(-c2cc3nc4c(c(O)n3n2)CCCC4)cc1 [MMV006937] | 102%
44 | CCOC(=O)c1cnc2ccc(CC)cc2c1O [MMV007116] | 101%
45 | COc1ccccc1N1C(=N)SC(=Cc2ccc(OCc3ccccc3F)cc2)C1=O [MMV007199] | 101%

Same assay, conditions: read-out: PbLuc IC50, dose response, 1/3 dilutions, max conc. 10 or 50 uM, unit inferred

Row | SMILES | pIC50
46 | O=C(NCc1ccco1)C1CCN(S(=O)(=O)c2ccc(Cl)cc2)CC1 [MMV006188] | 6.15
47 | CCCCc1c(C)nc2c(OC)cccc2c1O [MMV006820] | 6.79
48 | C=CCc1c(C)nc2ccccc2c1O [MMV006913] | 6.53
49 | Cc1ccc(-c2cc3nc4c(c(O)n3n2)CCCC4)cc1 [MMV006937] | 6.94
50 | CCOC(=O)c1cnc2ccc(CC)cc2c1O [MMV007116] | 7.31
51 | COc1ccccc1N1C(=N)SC(=Cc2ccc(OCc3ccccc3F)cc2)C1=O [MMV007199] | 5.74

Same assay, conditions: read-out: PbLuc IC50, dose response, unit inferred

Row | SMILES | pIC50
52 | COc1ccc(C)c2sc(N(Cc3cccnc3)C(=O)c3ccc(C#N)cc3)nc12 [MMV001241] | 4.67
53 | CCOC(=O)c1cnc2c(C)cccc2c1Nc1ccc(C(C)=O)cc1 [MMV006250] | 4.55

Same assay, conditions: read-out: PbLuc max inhibition (%) @ 10 uM

Row | SMILES | inhibition at 10 µM
54 | CCCCc1c(C)nc2c(OC)cccc2c1O [MMV006820] | 110%
55 | C=CCc1c(C)nc2ccccc2c1O [MMV006913] | 108%
56 | Cc1ccc(-c2cc3nc4c(c(O)n3n2)CCCC4)cc1 [MMV006937] | 110%
57 | CCOC(=O)c1cnc2ccc(CC)cc2c1O [MMV007116] | 110%

Same assay, conditions: read-out: PbLuc max inhibition (%) @ 50 uM

Row | SMILES | inhibition at 50 µM
58 | COc1ccc(C)c2sc(N(Cc3cccnc3)C(=O)c3ccc(C#N)cc3)nc12 [MMV001241] | 101%
59 | O=C(NCc1ccco1)C1CCN(S(=O)(=O)c2ccc(Cl)cc2)CC1 [MMV006188] | 106%
60 | CCOC(=O)c1cnc2c(C)cccc2c1Nc1ccc(C(C)=O)cc1 [MMV006250] | 84%
61 | COc1ccccc1N1C(=N)SC(=Cc2ccc(OCc3ccccc3F)cc2)C1=O [MMV007199] | 106%

The compounds below were run against QuantiLum Recombinant Luciferase (Photinus pyralis, UniProt P08659) (assay: Bioluminescence quantification of compound luciferase inhibition). Settings: not given.
Chain of QuantiLum Recombinant Luciferase (P08659 whole entry): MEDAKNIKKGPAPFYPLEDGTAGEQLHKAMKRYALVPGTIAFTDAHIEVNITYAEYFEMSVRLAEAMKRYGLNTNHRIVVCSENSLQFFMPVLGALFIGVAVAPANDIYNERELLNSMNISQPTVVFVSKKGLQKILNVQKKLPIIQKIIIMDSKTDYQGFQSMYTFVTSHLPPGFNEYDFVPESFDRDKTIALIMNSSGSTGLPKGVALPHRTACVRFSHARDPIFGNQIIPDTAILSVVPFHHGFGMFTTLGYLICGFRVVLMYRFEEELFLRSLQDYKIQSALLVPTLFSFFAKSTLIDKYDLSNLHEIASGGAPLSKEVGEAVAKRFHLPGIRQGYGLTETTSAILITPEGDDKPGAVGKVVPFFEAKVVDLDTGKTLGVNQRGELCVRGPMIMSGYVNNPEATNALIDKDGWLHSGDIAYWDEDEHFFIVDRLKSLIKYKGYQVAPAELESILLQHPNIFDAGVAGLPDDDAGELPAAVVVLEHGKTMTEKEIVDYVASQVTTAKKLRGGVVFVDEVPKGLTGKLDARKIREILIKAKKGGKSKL

Row | SMILES | pIC50
62 | COc1ccc(C)c2sc(N(Cc3cccnc3)C(=O)c3ccc(C#N)cc3)nc12 [MMV001241] | < 4.30
63 | O=C(NCc1ccco1)C1CCN(S(=O)(=O)c2ccc(Cl)cc2)CC1 [MMV006188] | < 4.30
64 | CCOC(=O)c1cnc2c(C)cccc2c1Nc1ccc(C(C)=O)cc1 [MMV006250] | < 4.30
65 | CCCCc1c(C)nc2c(OC)cccc2c1O [MMV006820] | < 4.70
66 | C=CCc1c(C)nc2ccccc2c1O [MMV006913] | < 4.70
67 | Cc1ccc(-c2cc3nc4c(c(O)n3n2)CCCC4)cc1 [MMV006937] | 5.75
68 | CCOC(=O)c1cnc2ccc(CC)cc2c1O [MMV007116] | < 4.70
69 | COc1ccccc1N1C(=N)SC(=Cc2ccc(OCc3ccccc3F)cc2)C1=O [MMV007199] | < 4.30

Same assay, conditions: read-out: LucInhib max inhibition

Row | SMILES | Emax
70 | COc1ccc(C)c2sc(N(Cc3cccnc3)C(=O)c3ccc(C#N)cc3)nc12 [MMV001241] | 7%
71 | O=C(NCc1ccco1)C1CCN(S(=O)(=O)c2ccc(Cl)cc2)CC1 [MMV006188] | 22%
72 | CCOC(=O)c1cnc2c(C)cccc2c1Nc1ccc(C(C)=O)cc1 [MMV006250] | 27%
73 | CCCCc1c(C)nc2c(OC)cccc2c1O [MMV006820] | 41%
74 | C=CCc1c(C)nc2ccccc2c1O [MMV006913] | 38%
75 | Cc1ccc(-c2cc3nc4c(c(O)n3n2)CCCC4)cc1 [MMV006937] | 92%
76 | CCOC(=O)c1cnc2ccc(CC)cc2c1O [MMV007116] | 17%
77 | COc1ccccc1N1C(=N)SC(=Cc2ccc(OCc3ccccc3F)cc2)C1=O [MMV007199] | 25%
